# Measured values published in patent US20240148821A1, “PHARMACEUTICAL USE OF CYCLIC PEPTIDE COMPOUND” (CHUGAI SEIYAKU KABUSHIKI KAISHA, priority 2021, published 2024).
# Numbered stars: 1 amine (or outer) side, 2 acyl side, 3 side chain; on linkers, the order of the positions; unused ones are H or OH. Bridge positions count the residues as written; N and C are the ends. Square brackets hold non-standard residues; d marks the D form. Peptide text beside a SMILES is read from it. * marks the point of attachment. hPhe(3-Cl-4-CF3) = N[C@@H](CCc1ccc(C(F)(F)F)c(Cl)c1)C(=O)O; hPhe(3-F,4-CF3) = N[C@@H](CCc1ccc(C(F)(F)F)c(F)c1)C(=O)O; X110 = Cc1ccc(I)cc1C[C@H](N[*:1])C(=O)[*:2]; NMeNle(6-CHF2) = CN[C@@H](CCCCC(F)F)C(=O)O; hPhe(4-Cl) = N[C@@H](CCc1ccc(Cl)cc1)C(=O)O; NMeGly(cPent) = CN[C@H](C(=O)O)C1CCCC1; NMeAla(cPr) = CN[C@@H](CC1CC1)C(=O)O; NMeY = CN[C@@H](Cc1ccc(O)cc1)C(=O)O; Pip(4-oxo) = O=C1CCN[C@H](C(=O)O)C1; NMeCha = CN[C@@H](CC1CCCCC1)C(=O)O; NMeChg = CN[C@H](C(=O)O)C1CCCCC1; NMeD = CN[C@@H](CC(=O)O)C(=O)O; NMeL = CN[C@@H](CC(C)C)C(=O)O; Chg = N[C@H](C(=O)O)C1CCCCC1; NMeNva = CCC[C@H](NC)C(=O)O; NMeV = CN[C@H](C(=O)O)C(C)C; d(β3hA) = C[C@@H](N)CC(=O)O; NMeAbu = CC[C@H](NC)C(=O)O; Pip = O=C(O)[C@@H]1CCCCN1; dNMeS = CN[C@H](CO)C(=O)O; NMeA = CN[C@@H](C)C(=O)O; NMeAib = CNC(C)(C)C(=O)O; Nle = CCCC[C@H](N)C(=O)O; Piperidide = C1CCN(*)CC1; Pyrrolidide = C1CCN(*)C1; Ac5c = NC1(C(=O)O)CCCC1; Aze = O=C(O)[C@@H]1CCN1; Ac3c = NC1(C(=O)O)CC1; NBuGly = CCCCNCC(=O)O; Aib = CC(C)(N)C(=O)O; Isopentyl = CC(C)CC*; Sar = CNCC(=O)O
# Tested on: Human pancreatic cancer cell line AsPC-1 (G12D mutation Kras)
# Assay: AsPC-1 cell growth inhibition (AsPC-1 CGI)
# Type: cell-based
# Details: read-out: AsPC-1 cell growth inhibition, 50% growth inhibitory concentration (IC50 value); 96 hours, CellTiter-Glo, values classified in ranges
# Description: Test compounds were serially dilated with dimethyl sulfoxide, and 200 nL was then dispensed to a U-bottom 96-well plate using Labcyte Echo. […] The cell suspension was dispensed to a. plate containing a test compound at 100 μL per well and incubated at 37° C. in a 5% carbon dioxide gas incubator. 96 hours later, 80 μL of CellTiter-Glo (Promega) was added to each well and fluorescence was measured.
row,Compound,IC50 [nM]
1,CCCC[C@@H]1NC(=O)[C@H](Cc2cc(I)ccc2C)NC(=O)CN(C)C(=O)[C@H](Cc2ccc(OC)cc2)N(C)C(=O)[C@@H]2CCN2C(=O)[C@H](C)N(C)C(=O)[C@H]([C@@H](C)CC)NC(=O)[C@H](CC)N(C)C(=O)C[C@@H](C(=O)N2CCCCC2)N(C)C(=O)[C@H](CC(C)C)NC(=O)C(C)(C)N(C)C1=O [Compound 1358] ([NMeAbu]I[NMeA][Aze][NMeY](Me)[Sar][X110][Nle][NMeAib]L[NMeD]-Piperidide; lactam N-11),> 500
2,CC[C@H](C)[C@@H]1NC(=O)[C@H](CC(C)C)N(C)C(=O)C[C@@H](C(=O)N2CCCCC2)N(C)C(=O)[C@H](C2CCCC2)N(C)C(=O)C2(CCCC2)NC(=O)[C@@H](COCCC(C)C)N(C)C(=O)[C@H](CCc2ccc(C(F)(F)F)c(Cl)c2)NC(=O)CN(C)C(=O)[C@H](CC2CCCCC2)N(C)C(=O)[C@@H]2CCN2C(=O)[C@H](C)N(C)C1=O [Compound 1443] ([NMeL]I[NMeA][Aze][NMeCha][Sar][hPhe(3-Cl-4-CF3)][dNMeS](Isopentyl)[Ac5c][NMeGly(cPent)][NMeD]-Piperidide; lactam N-11),> 500
3,CC[C@H](C)[C@@H]1NC(=O)[C@H](CC(C)C)N(C)C(=O)C[C@@H](C(=O)N2CCCCC2)N(C)C(=O)[C@H](C2CCCCC2)N(C)C(=O)C2(CCCC2)NC(=O)[C@@H]2CC(=O)CCN2C(=O)[C@H](CCc2ccc(C(F)(F)F)c(Cl)c2)NC(=O)CN(C)C(=O)[C@H](CC2CCCCC2)N(C)C(=O)CN(C)C(=O)CN(C)C1=O [Compound 1089] ([NMeL]I[Sar][Sar][NMeCha][Sar][hPhe(3-Cl-4-CF3)][Pip(4-oxo)][Ac5c][NMeChg][NMeD]-Piperidide; lactam N-11),> 500
4,"CC(C)C[C@H]1C(=O)N[C@@H](C2CCCCC2)C(=O)N(C)CC(=O)N(C)CC(=O)N(C)[C@@H](CCCCC(F)F)C(=O)N(C)CC(=O)N[C@@H](CCc2ccc(C(F)(F)F)c(F)c2)C(=O)N(C)[C@@H](CC(C)C)C(=O)NC(C)(C)C(=O)N(C)[C@@H](CC(C)C)C(=O)N[C@H](C(=O)N2CCCC2)CC(=O)N1C [Compound 1453] ([NMeL][Chg][Sar][Sar][NMeNle(6-CHF2)][Sar][hPhe(3-F,4-CF3)][NMeL][Aib][NMeL]D-Pyrrolidide; lactam N-11)",> 500
5,CC[C@H](C)[C@@H]1NC(=O)[C@H](CC(C)C)N(C)C(=O)C[C@@H](C(=O)N2CCCCC2)N(C)C(=O)[C@H](C(C)C)N(C)C(=O)C2(CC2)NC(=O)[C@@H]2CCCN2C(=O)[C@H](CCc2ccc(C(F)(F)F)c(Cl)c2)NC(=O)CN(C)C(=O)[C@H](CC2CCCCC2)N(C)C(=O)CN(C)C(=O)CN(C)C1=O [Compound 468] ([NMeL]I[Sar][Sar][NMeCha][Sar][hPhe(3-Cl-4-CF3)]P[Ac3c][NMeV][NMeD]-Piperidide; lactam N-11),> 500
6,CCCCN1CC(=O)N(C)CC(=O)N(C)[C@@H](CC2CCCCC2)C(=O)N(C)CC(=O)N[C@@H](CCc2ccc(C(F)(F)F)c(Cl)c2)C(=O)N2CCC[C@H]2C(=O)NC2(CCCC2)C(=O)N(C)[C@@H](C(C)C)C(=O)N[C@H](C)CC(=O)N(C)[C@@H](CC(C)C)C(=O)N[C@@H]([C@@H](C)CC)C1=O [Compound 123] (cyclo([Ac5c][NMeV][d(β3hA)][NMeL]I[NBuGly][Sar][NMeCha][Sar][hPhe(3-Cl-4-CF3)]P)),> 500
7,CC[C@H](C)[C@@H]1NC(=O)[C@@H]2CCCCN2C(=O)C[C@@H](C(=O)N2CCCCC2)N(C)C(=O)[C@H](C(C)C)N(C)C(=O)C2(CCCC2)NC(=O)[C@@H]2CCCN2C(=O)[C@H](CCc2ccc(Cl)cc2)NC(=O)CN(C)C(=O)[C@H](CC2CCCCC2)N(C)C(=O)CN(C)C(=O)CN(C)C1=O [Compound 841] ([Pip]I[Sar][Sar][NMeCha][Sar][hPhe(4-Cl)]P[Ac5c][NMeV][NMeD]-Piperidide; lactam N-11),> 500
8,CC[C@H](C)[C@@H]1NC(=O)[C@H](CC2CC2)N(C)C(=O)C[C@@H](C)NC(=O)[C@H](C(C)C)N(C)C(=O)C2(CCCC2)NC(=O)[C@@H]2CCCN2C(=O)[C@H](CCc2ccc(C(F)(F)F)c(Cl)c2)NC(=O)CN(C)C(=O)[C@H](CC2CCCCC2)N(C)C(=O)CN(C)C(=O)CN(C)C1=O [Compound 248] (cyclo([Ac5c][NMeV][d(β3hA)][NMeAla(cPr)]I[Sar][Sar][NMeCha][Sar][hPhe(3-Cl-4-CF3)]P)),> 500
9,CCC[C@H]1C(=O)N[C@@H]([C@@H](C)CC)C(=O)N(C)[C@@H](C)C(=O)N2CC[C@H]2C(=O)N(C)[C@@H](CC2CCCCC2)C(=O)N(C)CC(=O)N[C@@H](CCc2ccc(C(F)(F)F)c(Cl)c2)C(=O)N2CCC[C@H]2C(=O)NC2(CCCC2)C(=O)N(C)[C@@H](C2CCCC2)C(=O)N(C)[C@H](C(=O)N2CCCCC2)CC(=O)N1C [Compound 391] ([NMeNva]I[NMeA][Aze][NMeCha][Sar][hPhe(3-Cl-4-CF3)]P[Ac5c][NMeGly(cPent)][NMeD]-Piperidide; lactam N-11),≤ 20
